Test results as given in patent US20220306653A1, “MACROCYCLIC INHIBITORS OF MCL-1” (Janssen Pharmaceutica NV, priority 2019, published 2022).

Tested on: MOLP-8 human multiple myeloma cell line
Assay: MOLP8 Caspase-Glo 3/7 luminescent assay
Type: cell-based
Settings: 2 hours incubation; averaged values over all runs on all batches
Excerpt: MCL-1 is a regulator of apoptosis and is highly over-expressed in tumor cells that escape cell death. The assay evaluates the cellular potency of small-molecule compounds targeting regulators of the apoptosis pathway, primarily MCL-1, Bfl-1, Bcl-2, and other proteins of the Bcl-2 family. Protein-protein inhibitors disrupting the interaction of anti-apoptotic regulators with BH3-domain proteins initiate apoptosis.
The Caspase-Glo® 3/7 Assay is a luminescent assay that measures caspase-3 and -7 activities in purified enzyme preparations or cultures of adherent or suspension cells. The assay provides a proluminescent caspase-3/7 substrate, which contains the tetrapeptide sequence DEVD. This substrate is cleaved to release aminoluciferin, a substrate of luciferase used in the production of light. Addition of the single Caspase-Glo® 3/7 Reagent in an “add-mix-measure” format results in cell lysis, followed by caspase cleavage of the substrate and generation of a “glow-type” luminescent signal.
This assay uses the MOLP-8 human multiple myeloma cell line, which is sensitive to MCL-1 inhibition.
Cell cultures were maintained between 0.2 and 2.0×10^6 cells/mL. The cells were harvested by collection in 50 mL conical tubes. The cells were then pelleted at 500 g for 5 mins before removing supernatant and resuspension in fresh pre-warmed culture medium. The cells were counted and diluted as needed.
The assay reagent was prepared by transferring the buffer solution to the substrate vial and mixing. The solution may be stored for up to 1 week at 4° C. with negligible loss of signal.
Compounds were delivered in assay-ready plates (Proxiplate) and stored at −20° C.
Assays always include 1 reference compound plate containing reference compounds. The plates were spotted with 40 nL of compounds (0.5% DMSO final in cells; serial dilution; 30 μM highest conc. ⅓ dilution, 10 doses, duplicates). The compounds were used at room temperature and 4 μL of pre-warmed media was added to all wells except column 2 and 23. The negative control was prepared by adding 1% DMSO in media. The positive control was prepared by adding the appropriate positive control compound in final concentration of 60 μM in media. The plate was prepared by adding 4 μL negative control to column 23, 4 μL positive control to column 2 and 4 μL cell suspension to all wells in the plate. The plate with cells was then incubated at 37° C. for 2 hours. The assay signal reagent is the Caspase-Glo solution described above, and 8 μL was added to all wells. The plates were then sealed and measured after 30 minutes.
The activity of a test compound was calculated as percent change in apoptosis induction as follows:
LC=median of the Low Control values • =Central Reference in Screener • =DMSO • =0% ΠC=Median of the High Control values • =Scale Reference in Screener • =30 pM of positive control • =100% apoptosis induction
% Effect (AC50)=100−(sample−LC)/(HC−LC)*100
% Control=(sample/HC)*100
% Control min=(sample−LC)/(HC−LC)*100

Row | SMILES | AC50
1 | Cc1c(C(=O)O)n2c3ccc(Cl)c(c13)-c1c(nn(C)c1C)CSCc1cc(n(C)n1)CSc1cc(c3ccccc3c1)OCCC2 (single isomer, unassigned) [Compound 1, 1^5-chloro-1^3,2^1,2^5,6^1-tetramethyl-1^1H,2^1H,6^1H-10-oxa-4,8-dithia-1(4,1)-indola-2(4,3),6(3,5)-dipyrazola-9(3,1)-naphthalenacyclotridecaphane-1^2-carboxylic acid] | 0.05 µM
2 | Cc1c(C(=O)O)n2c3ccc(Cl)c(c13)-c1c(nn(C)c1C)CSCc1cc(n(C)n1)CSc1cc(c3ccccc3c1)OCCC2 (single isomer, unassigned) [Compound 2, 1^5-chloro-1^3,2^1,2^5,6^1-tetramethyl-1′H,2′H,6H-10-oxa-4,8-dithia-1(4,1)-indola-2(4,3),6(3,5)-dipyrazola-9(3,1)-naphthalenacyclotridecaphane-1^2-carboxylic acid] | 10.3 µM
